Values quoted from earlier work in patent US6548087B1, “Nutritional supplement” (priority 1999, dated 2003).

Test system: libido and performance
Settings: daily use

With `C[C@]12CC[C@H](O)CC1=CC[C@@H]1[C@@H]2CC[C@]2(C)C(=O)CC[C@@H]12` [DHEA, dehydroepiandrosterone] as the compound, how does the “effect on libido and performance” value read?
The value was “increase libido and performance”.
